Assay results from US12281118B2, “Nitrogen-containing fused heterocyclic SHP2 inhibitor compound, preparation method, and use” (SHANGHAI RINGENE BIOPHARMA CO., LTD., priority 2018, dated 2025).
pIC50: −log10 of the molar value. Read-outs that look alike come from different tables or passages of the source.

Legend:
MV4-11 leukemia cells = experiment: Inhibition of proliferation of MV4-11 leukemia cells (CellTiter-Glo, 72 h); assay type: cell-based; conditions: read-out: IC50 value, MV4-11 cell proliferation
Procedure: Specific experimental procedures: 1) At Day 0: Inoculating trypsin-digested cells in 96-well plate and suspending the plate in cell culture medium; measure cell density using an automatic cell counter, diluting the cells with the culture medium to appropriate density, adding 100 μl of cell suspension in the 96-well plate, and incubating a cell-free medium as a control well in a cell incubator with […] at 37° C. overnight; 2) Day 1: Treating test compounds of the cells using a drug for a total of 8 concentrations, and diluting at a 3× concentration, wherein 10 μM is a starting test concentration of the test compounds. […] IC50 values are obtained by a four-parameter regression using software attached to the plate reader (the specific results are shown in Table 2).

[1] = system: KYSE520 tumor cell xenograft; experiment: Growth inhibition of xenograft in nude mice; assay type: in vivo; conditions: 30 mg/kg, orally, once daily, for 21 consecutive days
From the text: (§1) Experimental method: 1) Culturing MV 4-11/KYSE520/NCI-H358 cells in a culture medium containing 10% fetal bovine serum. Harvesting tumor cells at an exponential growth phase, and resuspending in PBS to suitable concentrations for subcutaneous tumor inoculation in nude mice. 2) Subcutaneously inoculating 2-8×10^7 tumor cells at the right back of a mouse, and resuspending the cells in PBS and matrigel (1:1); observing tumor growth regularly, and randomizing mice for administration based on tumor size and mouse body weight when tumors grow to a mean volume of ˜120 mm^3-[…]. 3) Defining the day of tumor cell inoculation as Day 0. Prior to the start of dosing, weighing all animals and measuring the tumor volume with a vernier caliper. 3) Administering orally compound of examples (prepared with water for injection containing 1% Tween80 to a desired concentration for use) at a given dose for three consecutive weeks, and giving an equal amount of solvent animals in a solvent control group. Measuring diameters of the xenograft twice a week throughout the experiment, and weighing the mice were at the same time.
(§2) The calculation formula of tumor volume (TV) is: TV=½×a×b^2, wherein a and b represent length and width, respectively. The relative tumor volume (RTV) is calculated based on the measured results using the formula: RTV=Vt/V0, wherein V0 is the tumor volume measured at the time of dosing in separate cages (i.e., Day 0) and Vt is the tumor volume at each measurement. The anti-tumor activity is evaluated by the following measures: 1) relative tumor proliferation rate T/C (%), which is calculated by the following formula: T/C (%)=(TRTV/CRTV)×100%, wherein TRTV: RTV of ae treatment group; CRTV: RTV of a negative control group; 2) inhibition rate of tumor volume growth GI %, which is calculated by the following formula: GI %=[1−(TVt−TV0)/(CVt−[…])]×100%, wherein TVt is the tumor volume at each measurement in the treatment group; TV0 is the tumor volume obtained at the time of dosing in separate cages in the treatment group; CVt is the tumor volume at each measurement in the control group; CV0 is the tumor volume obtained at the time of dosing in separate cages in the control group (specific data are shown in Table 4).

[2] = system: MV 4-11 tumor cell xenograft; experiment: Growth inhibition of xenograft in nude mice; assay type: in vivo; conditions: 30 mg/kg, orally, once daily, for 21 consecutive days
From the text: as §1, §2

SHP2 enzyme = SHP2 enzyme (Homo sapiens (Human), UniProt Q06124); experiment: Inhibitory activity against SHP2 enzyme (Caliper conversion rate); assay type: biochemical; conditions: read-out: SHP2 Enzyme Inhibition IC50 Value
Procedure: (1) Preparing 1×Reaction Buffer according to the BPS Biosciences' Instructions for Use of the SHP2 enzyme. (2) Preparing a compound concentration gradient: Test the test compound at 10 μM under 3× dilution for 10 concentrations, diluting to a 100% dimethyl sulfoxide solution at a 100× final concentration in a 384-well plate, and diluting the compound with Precision 4× for 10 concentrations. Transferring 250 nL of the compound at the 100× final concentration to a target plate OptiPlate-384F using a dispenser Echo 550. […] (3) Preparing the activation peptide solution at a 5× final concentration with the 1×Reaction Buffer, adding 5 μL of the solution to a reaction plate, respectively, and centrifuging at 1000 rpm for 1 min. (4) Preparing an enzyme solution at a 2.5× final concentration with the 1×Reaction Buffer, adding 10 μL of the solution to the reaction plate, respectively, centrifuging at 1000 rpm for 1 min, and incubating at room temperature for 60 min. (5) Preparing a substrate peptide solution at a 2.5× final concentration with the 1×Reaction Buffer, centrifuging at 1000 rpm for 1 min, and incubating at room temperature for 30 min. (6) Adding 30 μL of stop test solution to stop the reaction, centrifuging at 1000 rpm for […], and mixing well by shaking. (7) Reading the conversion rate with a Caliper EZ Reader. (7) Data analysis:
Wherein: Conversion %/_sample is the reading of a conversion rate of a sample; Conversion %_min: mean of negative control wells, which represents the reading of a conversion rate in absence of enzyme activity wells; Conversion %_max: mean of a ratio of positive control wells, which represents the reading of a conversion rate in absence of compound inhibition wells.

[3] = system: NCI-H358 tumor cell xenograft; experiment: Growth inhibition of xenograft in nude mice; assay type: in vivo; conditions: 10 mg/kg, orally, once daily, for 21 consecutive days
From the text: as §1, §2

pIC50 (MV4-11 leukemia cells; 72 h)	pIC50 (SHP2 enzyme)	pIC50 (MV4-11 leukemia cells; Homo sapiens, MV4-11, 72 h)	Structure (SMILES)	T/C [1] [%]	T/C [2] [%]	T/C [3] [%]
5.78			CC1(N)CCN(c2cnc(-c3cccc(Cl)c3Cl)c(N)n2)CC1 [SHP099, reference compound]	43	47	
	8.17	7.37	Cc1nc(N2CCC3(CC2)CO[C@@H](C)[C@H]3N)n2ccnc2c1Sc1ccnc(N)c1Cl [Comparative Compound 3, reference compound]			39
